Key:
[1] = tested on: BPH induced animal model (sulpiride); test: Organ weights in sulpiride BPH induced animal model; type: in vivo, Sprague-Dawley male rats; settings: rat
[2] = tested on: 5α-reductase; test: Expression of 5α-reductase in ventral prostate by RT-PCR, BPH induced animal model; type: in vivo, Sprague-Dawley male rats; settings: sulpiride 40 mg/kg alone, 60 days, rat
Description: As androgen, the most commonly used hormone in the body is testosterone. But the most powerful hormone of androgens related to development of prostate is 5α-dihydrotestosterone (DHT) which is made by combining testosterone and 5α-reductase. […] It is reported that DHT made by hyperprolactinemia make more gaining weight in lateral lobe than dorsal lobe or ventral lobe of prostate. Based on this fact, the experiment using PEP1 according to example 1 only or co-administration with other test material to BPH induced animal model was done as follows. […] Also before administrating the test materials, the body weights of every animal were measured and recorded.
Sulpiride as test material was purchased from Sigma Chemical Co. (St. Louis, Mo., USA) and used for the experiment. […] The dosage of the administration was calculated based on the concentration of 0.5 ml/kg with reflecting the body weight measured every day. […]
After administrating sulpiride with test materials for 60 days and collecting ventral prostate, the effect to the expression of 5α-reductase was measured by using RT-PCR. […] After then RNA was quantified by using spectrophotometer. […] For the control of quantification in electrophoresis, GAPDH whose expression level is not changed by other drugs was used. […]

[3] = Sulpiride 40 mg/kg 60 days alone (BPH induction)
[4] = Sulpiride 40 mg/kg 60 days + Finasteride 5 mg/kg

**Q.** What does the source list for `CCN1CCCC1CNC(=O)c1cc(S(N)(=O)=O)ccc1OC` (stereo not shown) [Sulpiride, sulpiride]?
**A.** Weight of prostate [1, 3]: 1.59 ± 0.05 g; Weight of seminal vesicle [1, 3]: 1.23 ± 0.11 g; Prostate index ([1]; Sulpiride 40 mg/kg 60 days alone (BPH induction), equation Final prostate weight/body weight): 0.303; Level of 5α-reductase expression in ventral prostate (RT-PCR) [2]: increased

**Q.** How did the Prostate index [1, 4] turn out when `CC(C)(C)NC(=O)[C@H]1CC[C@H]2[C@@H]3CC[C@H]4NC(=O)C=C[C@]4(C)[C@H]3CC[C@]12C` [Finasteride, finasteride] was run?
**A.** Its Prostate index is 0.157.

**Q.** And the Weight of prostate [1, 4]?
**A.** Its Weight of prostate is 0.75 ± 0.06 g.

**Q.** What about the “Weight of seminal vesicle” value [1, 4] of the same compound?
**A.** The value was 0.49 ± 0.02 g.

From US9572858B2, “Composition for treating and preventing benign prostatic hyperplasia” (GemVax & KAEL Co., Ltd., priority 2013, dated 2017)
